Measured values: paper PMC10779170, “Identification of 2,4-Di-tert-butylphenol as a Novel Agonist for Insect Odorant Receptors” (International Journal of Molecular Sciences, 2023)

Key:
Experiment in all cases: two-electrode voltage clamp, Xenopus oocytes
Type in all cases: cell-based
[1] = biological target: T1, Orco + Or35a (Drosophila melanogaster, UniProt Q9V3Q2); settings: agonist; 10 μM in Figure 2D; holding potential -80 mV, ND96 pH 7.4
T1 construct: same complex as P4, site on OrX; with Odorant receptor coreceptor
T1 sequence (Q9V3Q2 1-409): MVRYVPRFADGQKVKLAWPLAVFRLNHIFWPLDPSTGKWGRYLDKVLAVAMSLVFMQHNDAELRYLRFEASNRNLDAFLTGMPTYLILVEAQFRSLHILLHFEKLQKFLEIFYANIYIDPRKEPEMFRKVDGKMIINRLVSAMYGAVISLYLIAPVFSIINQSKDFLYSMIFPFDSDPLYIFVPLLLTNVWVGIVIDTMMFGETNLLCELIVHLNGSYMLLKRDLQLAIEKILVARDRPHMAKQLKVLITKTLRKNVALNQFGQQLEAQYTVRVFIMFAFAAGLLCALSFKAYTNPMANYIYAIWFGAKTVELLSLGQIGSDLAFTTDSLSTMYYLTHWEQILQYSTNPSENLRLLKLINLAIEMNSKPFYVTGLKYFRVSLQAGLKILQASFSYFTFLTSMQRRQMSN
T1 sequence (Q9VNB5 1-486 partner): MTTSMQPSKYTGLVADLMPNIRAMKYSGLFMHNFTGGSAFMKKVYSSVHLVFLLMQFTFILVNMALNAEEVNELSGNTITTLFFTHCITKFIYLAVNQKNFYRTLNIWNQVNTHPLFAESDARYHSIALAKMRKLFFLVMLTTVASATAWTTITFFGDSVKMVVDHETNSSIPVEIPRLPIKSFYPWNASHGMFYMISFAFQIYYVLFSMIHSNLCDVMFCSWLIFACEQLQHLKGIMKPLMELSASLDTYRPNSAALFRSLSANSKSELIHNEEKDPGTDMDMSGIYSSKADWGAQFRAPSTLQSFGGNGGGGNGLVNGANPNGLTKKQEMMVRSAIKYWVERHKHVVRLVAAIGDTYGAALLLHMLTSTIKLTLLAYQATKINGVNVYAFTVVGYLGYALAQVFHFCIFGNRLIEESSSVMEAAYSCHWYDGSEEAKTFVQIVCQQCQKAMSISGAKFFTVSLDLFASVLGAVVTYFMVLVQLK

[2] = biological target: T2, ORCO + Or1a (Drosophila melanogaster, UniProt Q9VNB5); settings: agonist; holding potential -80 mV, ND96 pH 7.4, room temperature; unit inferred, μM from text for the ORCO row
T2 construct: heteromer; cRNAs co-injected in Xenopus laevis oocytes (pGEM-HE); for DTBP, site on Orco; with Odorant receptor 1a
T2 sequence (Q9VNB5 1-486): T1 sequence (Q9VNB5 1-486 partner)
T2 sequence (Q9W5G6 1-392 partner): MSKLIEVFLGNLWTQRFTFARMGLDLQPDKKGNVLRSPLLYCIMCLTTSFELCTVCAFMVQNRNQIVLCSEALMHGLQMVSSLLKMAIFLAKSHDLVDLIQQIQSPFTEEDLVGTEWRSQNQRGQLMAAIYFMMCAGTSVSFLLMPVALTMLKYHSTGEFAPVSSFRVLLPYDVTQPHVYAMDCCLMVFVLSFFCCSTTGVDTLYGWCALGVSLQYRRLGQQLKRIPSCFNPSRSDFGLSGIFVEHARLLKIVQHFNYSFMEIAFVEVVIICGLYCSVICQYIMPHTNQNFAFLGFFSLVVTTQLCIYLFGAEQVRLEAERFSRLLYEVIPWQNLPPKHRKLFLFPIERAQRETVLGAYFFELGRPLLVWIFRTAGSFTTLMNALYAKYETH
Source text: two-electrode voltage clamp, Xenopus oocytes on ORCO + Or1a

[3] = biological target: T3, ORCO + Or24a (Drosophila melanogaster, UniProt Q9VNB5); settings: agonist; holding potential -80 mV, ND96 pH 7.4, room temperature
T3 construct: heteromer; cRNAs co-injected in Xenopus laevis oocytes (pGEM-HE); for DTBP, site on Orco; with Odorant receptor 24a
T3 sequence (Q9VNB5 1-486): T1 sequence (Q9VNB5 1-486 partner)
T3 sequence (P81913 1-398 partner): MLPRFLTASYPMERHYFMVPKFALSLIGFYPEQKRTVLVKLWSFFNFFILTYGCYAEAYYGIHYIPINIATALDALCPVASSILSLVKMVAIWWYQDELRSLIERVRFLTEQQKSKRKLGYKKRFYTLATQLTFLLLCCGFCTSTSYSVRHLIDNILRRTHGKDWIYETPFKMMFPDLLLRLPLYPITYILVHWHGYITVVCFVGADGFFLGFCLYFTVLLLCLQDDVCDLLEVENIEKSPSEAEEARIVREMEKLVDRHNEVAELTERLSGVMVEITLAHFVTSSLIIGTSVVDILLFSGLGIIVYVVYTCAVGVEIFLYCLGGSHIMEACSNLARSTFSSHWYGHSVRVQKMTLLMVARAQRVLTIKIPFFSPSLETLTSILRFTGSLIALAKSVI
Source text: two-electrode voltage clamp, Xenopus oocytes on ORCO + Or24a

[4] = biological target: T4, Orco homomeric receptor (Drosophila melanogaster, UniProt Q9VNB5); settings: agonist; holding potential -80 mV, ND96 pH 7.4, room temperature
T4 construct: synthesised cDNA in pGEM-HE, cRNA injected in Xenopus laevis oocytes; homotetramer
T4 sequence (Q9VNB5 1-486): T1 sequence (Q9VNB5 1-486 partner)

[5] = biological target: T5, ORCO + Or35a (Drosophila melanogaster, UniProt Q9VNB5); settings: agonist; holding potential -80 mV, ND96 pH 7.4, room temperature
T5 construct: heteromer; cRNAs co-injected in Xenopus laevis oocytes (pGEM-HE); for DTBP, site on Orco; with Odorant receptor 35a
T5 sequence (Q9VNB5 1-486): T1 sequence (Q9VNB5 1-486 partner)
T5 sequence (Q9V3Q2 1-409 partner): T1 sequence (Q9V3Q2 1-409)
Source text: two-electrode voltage clamp, Xenopus oocytes on ORCO + Or35a

[6] = biological target: T6, Orco + Or24a (Drosophila melanogaster, UniProt P81913); settings: agonist; 0.3 μM in Figure 2C; holding potential -80 mV, ND96 pH 7.4
T6 construct: same complex as P3, site on OrX; with Odorant receptor coreceptor
T6 sequence (P81913 1-398): T3 sequence (P81913 1-398 partner)
T6 sequence (Q9VNB5 1-486 partner): T1 sequence (Q9VNB5 1-486 partner)

[7] = biological target: T7, Orco + Or1a (Drosophila melanogaster, UniProt Q9W5G6); settings: agonist; 0.3 μM in Figure 2B; holding potential -80 mV, ND96 pH 7.4
T7 construct: same complex as P2, site on OrX; with Odorant receptor coreceptor
T7 sequence (Q9W5G6 1-392): T2 sequence (Q9W5G6 1-392 partner)
T7 sequence (Q9VNB5 1-486 partner): T1 sequence (Q9VNB5 1-486 partner)

CCCCC(C)O (stereo not shown) [2-hexanol]
normalised dose-response curve [1]: illustrate the normalized activation of DTBP and other odorants for each heteromeric receptor

CC(C)(C)c1ccc(O)c(C(C)(C)C)c1 [2,4-di-tert-butylphenol]
EC50 [2]: 104 ± 27.7 µM | EC50 [3]: 51 ± 8.2 µM | EC50 [4]: 13.4 ± 3 µM | EC50 [5]: 38.1 ± 3.8 µM

CCCCCCCCO [octanol]
normalised dose-response curve [6]: illustrate the normalized activation of DTBP and other odorants for each heteromeric receptor

CCCCCC(C)=O [2-heptanone]
normalised dose-response curve [7]: illustrate the normalized activation of DTBP and other odorants for each heteromeric receptor
